The structures appear in SMILES notation.

In the first assay the target is HGFR (c-Met) (Homo sapiens, UniProt P08581). As to the kind of experiment: HGFR Continuous-Coupled Spectrophotometric Assay. It is filed as biochemical. Conditions: HGFR enzyme 50 nM, Met-2 peptide substrate, 37° C. In a few lines: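 Human HGFR (50 nM final) phosphorylates the Met-2 activation-loop peptide, with ADP formation coupled through PK/LDH to NADH consumption, read as the A340 decrease over 10 min at 37 °C. Buffer was HEPES pH 7.5 with MgCl2, DTT, PEP and ATP.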
Sequence of HGFR (c-Met) (P08581 974-1390): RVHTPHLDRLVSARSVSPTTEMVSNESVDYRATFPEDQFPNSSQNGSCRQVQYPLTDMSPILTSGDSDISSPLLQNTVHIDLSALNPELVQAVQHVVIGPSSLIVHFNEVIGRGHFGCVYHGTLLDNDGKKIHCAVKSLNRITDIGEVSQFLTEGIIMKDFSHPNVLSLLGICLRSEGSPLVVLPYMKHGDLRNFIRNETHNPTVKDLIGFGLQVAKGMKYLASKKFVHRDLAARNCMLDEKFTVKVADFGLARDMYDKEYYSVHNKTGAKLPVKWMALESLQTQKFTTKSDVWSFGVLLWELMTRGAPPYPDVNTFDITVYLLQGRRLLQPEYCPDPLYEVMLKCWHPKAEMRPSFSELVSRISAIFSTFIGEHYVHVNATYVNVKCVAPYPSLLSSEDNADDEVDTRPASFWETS
The molecule `CC(Oc1cc(-c2ccc(NC(=O)N3CCC(NC4CC4)CC3)cc2)cnc1N)c1c(Cl)ccc(F)c1Cl` (centres unmarked) [Example 39, 4-Cyclopropylamino-piperidine-1-carboxylic acid (4-{6-amino-5-[1-(2,6-dichloro-3-fluoro-phenyl)-ethoxy]-pyridin-3-yl}-phenyl)-amide] came in with a Ki of 95 nM.
On the same count and under the same terms, in the case of `CC(Oc1cc(-c2cnc(OC3CCNCC3)nc2)cnc1N)c1c(Cl)ccc(F)c1Cl` (centres unmarked) [Example 116, 3-[1-(2,6-dichloro-3-fluorophenyl)ethoxy]-5-[2-(piperidin-4-yloxy)pyrimidin-5-yl]pyridin-2-amine] it was 160 nM; in that of `CC(Oc1cc(-c2ccc(C(=O)N3CCC4(CCNCC4)C3)cc2)cnc1N)c1c(Cl)ccc(F)c1Cl` (centres unmarked) [Example 19, 5-[4-(2,8-Diazaspiro[4.5]dec-2-ylcarbonyl)phenyl]-3-[1-(2,6-dichloro-3-fluorophenyl)ethoxy]pyridin-2-amine], 46 nM.
In turn, `CC(Oc1cc(-c2cnc(OC3CCN(C(=O)OC(C)(C)C)CC3)nc2)cnc1N)c1c(Cl)ccc(F)c1Cl` (centres unmarked) [Example 114, tert-butyl 4-[(5-{6-amino-5-[1-(2,6-dichloro-3-fluorophenyl)ethoxy]pyridin-3-yl}pyrimidin-2-yl)oxy]piperidine-1-carboxylate] gave an inhibition constant (Ki) of 480 nM.
`CNCCNC(=O)c1ccc(-c2cnc(N)c(OC(C)c3c(Cl)ccc(F)c3Cl)c2)cc1` (centres unmarked) [Example 9, 4-{6-Amino-5-[1-(2,6-dichloro-3-fluorophenyl)ethoxy]pyridin-3-yl}-N-[2-(methylamino)ethyl)benzamide] gave a Ki of 37 nM.
As to `CC(Oc1cc(-c2ccc(OC3CCNCC3)cc2)cnc1N)c1c(Cl)ccc(F)c1Cl` (centres unmarked) [Example 34, 3-[1-(2,6-Dichloro-3-fluoro-phenyl)-ethoxy]-5-[4-(piperidin-4-yloxy)-phenyl]-pyridin-2-ylamine], the Ki is 40 nM.
In the case of `CC(Oc1cc(-c2ccc(CC(=O)N3CCN(C)CC3)cc2)cnc1N)c1c(Cl)ccc(F)c1Cl` (centres unmarked) [Example 98, 2-(4-{6-Amino-5-[1-(2,6-dichloro-3-fluoro-phenyl)-ethoxy]-pyridin-3-yl}-phenyl)-1-(4-methyl-piperazin-1-yl)-ethanone], the Ki worked out at 68 nM.
`C[C@H](Oc1cc(-c2ccc(C(=O)N3CCNCC3)cc2)cnc1N)c1c(Cl)ccc(F)c1Cl` [Example 119, 3-[(1S)-1-(2,6-dichloro-3-fluorophenyl)ethoxy]-5-[4-(piperazin-1-ylcarbonyl)phenyl] pyridin-2-amine] displayed an inhibition constant Ki of 1500 nM.
The molecule `CC(Oc1cc(-c2ccc(-c3ccno3)cc2)cnc1N)c1c(Cl)ccc(F)c1Cl` (centres unmarked) [Example 25, 3-[1-(2,6-dichloro-3-fluorophenyl)ethoxy]-5-(4-isoxazol-5-ylphenyl)pyridin-2-amine] yielded a Ki of 87.7 nM.
In turn, `CC(Oc1cc(-c2cccc(C3(C#N)CCNCC3)c2)cnc1N)c1c(Cl)ccc(F)c1Cl` (centres unmarked) [Example 153, 4-(3-{6-amino-5-[1-(2,6-dichloro-3-fluorophenyl)ethoxy]pyridin-3-yl}phenyl) piperidine-4-carbonitrile] returned a Ki of 6 nM.
Turning to `CC(Oc1cc(-c2ccc(C(=O)N3C[C@@H](C)N[C@@H](C)C3)cc2)cnc1N)c1c(Cl)ccc(Cl)c1F` (some centres unmarked) [Example 97, (4-{6-Amino-5-[1-(3,6-dichloro-2-fluoro-phenyl)-ethoxy]-pyridin-3-yl}-phenyl)-(3,5-dimethyl-piperazin-1-yl)-methanone], the Ki came out at 324 nM.
`CC(Oc1cc(-c2ccc(NC(=O)C3CCNCC3)nc2)cnc1N)c1c(Cl)ccc(F)c1Cl` (centres unmarked) [Example 102, Piperidine-4-carboxylic acid {6′-amino-5′-[1-(2,6-dichloro-3-fluoro-phenyl)-ethoxy]-[3,3′]bipyridinyl-6-yl}-amide] had a Ki of 164 nM.
The same measure, in the same setting: to `Cc1[nH]c(C(=O)NCCN(C)C)c(C)c1-c1cnc(N)c(OC(C)c2c(Cl)ccc(F)c2Cl)c1` (centres unmarked) [Example 44, 4-{6-Amino-5-[1-(2,6-dichloro-3-fluoro-phenyl)-ethoxy]-pyridin-3-yl}-3,5-dimethyl-1H-pyrrole-2-carboxylic acid (2-dimethylamino-ethyl)-amide] belongs 262 nM; to `CC(Oc1cc(-c2ccc(OC3CCNCC3)nc2)cnc1N)c1c(Cl)ccc(F)c1Cl` (centres unmarked) [Example 71, 5-[1-(2,6-Dichloro-3-fluoro-phenyl)-ethoxy]-6′-(piperidin-4-yloxy)-[3,3′]bipyridinyl-6-ylamine], 27 nM.
The molecule `CC(Oc1cc(-c2ccc(C(=O)NC3CCCNC3)cc2)cnc1N)c1c(Cl)ccc(F)c1Cl` (centres unmarked) [Example 16, 4-{6-Amino-5-[1-(2,6-dichloro-3-fluorophenyl)ethoxy]pyridin-3-yl}-N-piperidin-3-ylbenzamide] came in with a Ki of 44 nM.
The molecule `CC(Oc1cc(-c2ccc(N3CCC(N4CCCC4)CC3)nc2)cnc1N)c1c(Cl)ccc(F)c1Cl` (centres unmarked) [Example 67, 5″-[1-(2,6-Dichloro-3-fluoro-phenyl)-ethoxy]-4-pyrrolidin-1-yl-3,4,5,6-tetrahydro-2H-[1,2′;5′,3″]terpyridin-6″-ylamine] yielded a Ki of 23.1 nM.
`CC(Oc1cc(-c2ccc(C(=O)N3CCC(N4CCCC4)CC3)cc2)cnc1N)c1ccccc1` (centres unmarked) [Example 53, {4-[6-Amino-5-(1-phenyl-ethoxy)-pyridin-3-yl]-phenyl}-(4-pyrrolidin-1-yl-piperidin-1-yl)-methanone] registered an inhibition constant Ki of 11000 nM.

The assay is the same for the next values; noted with them: compound at 1 μM.
With `CC(Oc1cc(-c2ccc(C(=O)N3CCC4(CCNCC4)C3)cc2)cnc1N)c1c(Cl)ccc(F)c1Cl` (centres unmarked) [Example 19, 5-[4-(2,8-Diazaspiro[4.5]dec-2-ylcarbonyl)phenyl]-3-[1-(2,6-dichloro-3-fluorophenyl)ethoxy]pyridin-2-amine], the inhibition at 1 µM turned out to be 93%.
As to `CNCCNC(=O)c1ccc(-c2cnc(N)c(OC(C)c3c(Cl)ccc(F)c3Cl)c2)cc1` (centres unmarked) [Example 9, 4-{6-Amino-5-[1-(2,6-dichloro-3-fluorophenyl)ethoxy]pyridin-3-yl}-N-[2-(methylamino)ethyl)benzamide], 1 µM produced 91% inhibition.
For the molecule `CC(Oc1cc(-c2ccc(C(=O)NC3CCCNC3)cc2)cnc1N)c1c(Cl)ccc(F)c1Cl` (centres unmarked) [Example 16, 4-{6-Amino-5-[1-(2,6-dichloro-3-fluorophenyl)ethoxy]pyridin-3-yl}-N-piperidin-3-ylbenzamide], 1 µM produced 91% inhibition.

These data come from patent publication US20060178374A1, “Aminoheteroaryl compounds as protein kinase inhibitors” (AGOURON PHARMACEUTICALS, INC., priority 2004, published 2006).
